In article PMC10974290, “Biocatalytic Synthesis of Coumarin S-Glycosides: Towards Non-Cytotoxic Probes for Biomedical Imaging and Sensing” (Molecules, 2024):

How the values were obtained:
[1] = system: HaCaT (keratinocyte normal skin); experiment: MTT cell proliferation assay, HaCaT; format: cell-based; settings: Homo sapiens, 72 h incubation, 95% confidence interval in parentheses
Protocol: (§1) To use these S-glycosidic compounds in cellulo, the potential impact of the glycosidic linkage nature on the anticancer activity was assessed. The S-glycoside derivatives and the 7-MC were tested against four human cancer cell lines and a healthy one, namely A549 (lung carcinoma), HS-683 (glioma cancer), MCF-7 (breast adenocarcinoma), SK-MEL-28 (melanoma skin cancer), and HaCaT (keratinocyte normal skin), using MTT (thiazolyl blue tetrazolium bromide, Sigma-Aldrich, St. Louis, MO, USA) assay, as previously described in the literature. The selected reference drugs were 5-fluorouracil (5-FU) and etoposide.
(§2) Cell proliferation of five distinct cell lines was evaluated using the colorimetric MTT (thiazolyl blue tetrazolium bromide, Sigma) assay. Human keratinocyte normal skin HaCaT was cultivated in DMEM supplemented with 4.5 g/L glucose, 2 mM L-glutamine, and 10% FBS. Cancer cell lines and their respective growth media were obtained from CLS Cell Line Service GmbH (Eppelheim, Germany). Specifically, human skin melanoma SK-MEL-28 and human brain glioma HS683 were cultivated in DMEM with identical supplements as HaCaT cells. The human lung carcinoma cell line A-549 was grown in DMEM/Ham’s F12 (1:1) medium supplemented with 2 mM L-glutamine and 5% FBS. Additionally, human breast adenoma carcinoma MCF-7 cells were sustained in EMEM supplemented with 2 mM L-glutamine, sodium pyruvate, non-essential amino acids (NEAAs), 10 µg/mL insulin human, and 10% FBS. The MTT assay relies on the reduction of the yellow product thiazolyl blue tetrazolium bromide (MTT) to formazan, a purple-blue product, by mitochondrial dehydrogenases in metabolically active cells. The number of living cells after incubation in the presence (or absence, control) of the tested molecules is directly proportional to the blue color, which was measured by spectrophotometry. To perform the assay, cells were initially seeded at a density of 2500 cells/mL in 96-well culture plates (Nunc™ Edge 2.0, Fisher) and allowed to adhere and proliferate over a 24-hour incubation period. Following this, the cells were treated with various concentrations of the tested compounds, which were previously prepared as serial dilutions and dissolved in 0.1% DMSO. These stable solutions guarantee the consistency of experimental conditions over extended periods. Each concentration of the tested compounds underwent triplicate testing (n = 3), and cells were subsequently incubated for 72 h to allow for thorough evaluation. Following this incubation period, MTT reagent (5 mg/mL solution in PBS) was introduced to each well (10% v/v), and cells were further incubated for 4 h. Then, the culture medium was carefully removed, and the resulting blue formazan crystals were dissolved in 100 µL of 100% DMSO. Absorbance readings were taken at 540 nm, referencing a wavelength of 620 nm, using a spectrophotometer. In determining the IC50, the absorbance of serial dilutions of each cell line, treated under identical conditions but without the presence of the tested compounds, was measured.

[2] = system: A-549 (lung carcinoma); experiment: MTT cell proliferation assay, A-549; format: cell-based, human; settings: 72 h incubation, 95% confidence interval in parentheses
Protocol: as §1, with “literature.” for “literature. The selected reference drugs were 5-fluorouracil (5-FU) and etoposide.”
as §2, with “These stable solutions guarantee the consistency of experimental conditions over extended periods.” left out

[3] = system: MCF-7 (breast adenocarcinoma); experiment: MTT cell proliferation assay, MCF-7; format: cell-based; settings: Homo sapiens, MCF7, 72 h incubation, 95% confidence interval in parentheses
Protocol: as §1, §2

[4] = system: HS683 (brain glioma); experiment: MTT cell proliferation assay, HS683; format: cell-based; settings: Homo sapiens, Hs 683, 72 h incubation, 95% confidence interval in parentheses
Protocol: as §1, §2

[5] = system: SK-MEL-28 (melanoma skin cancer); experiment: MTT cell proliferation assay, SK-MEL-28; format: cell-based; settings: Homo sapiens, 72 h incubation, 95% confidence interval in parentheses
Protocol: as §1, §2

Row | SMILES | IC50 ([2]; Homo sapiens, A549, 72 h) [mM] | IC50 [3] [mM] | IC50 [4] [mM] | IC50 [5] [mM] | IC50 [2] [mM] | IC50 [1] [mM]
1 | Cc1cc(=O)oc2cc(S[C@@H]3O[C@H](CO)[C@H](O)[C@H](O)[C@H]3O)ccc12 [Compound S-4, 4-Methylumbellifer-7-yl 1-thio-β-D-galactopyranoside] | > 1 | > 1 | > 1 | > 1 |  | > 1
2 | Cc1cc(=O)oc2cc(S)ccc12 [Compound 7-MC, 7-mercapto-4-methylcoumarin, reference compound] | > 1 | > 1 |  | 0.306 |  | 
3 | Cc1cc(=O)oc2cc(S[C@@H]3O[C@H](CO)[C@@H](O)[C@H](O)[C@H]3O)ccc12 [Compound S-3, 4-Methylumbellifer-7-yl 1-thio-β-D-glucopyranoside] | > 1 | > 1 | > 1 | > 1 |  | > 1
4 | Cc1cc(=O)oc2cc(S[C@@H]3O[C@H](C)[C@H](O)[C@H](O)[C@H]3O)ccc12 [Compound S-5, 4-Methylumbellifer-7-yl 1-thio-β-D-fucopyranoside] | > 1 | > 1 | > 1 | > 1 |  | > 1

Continued, in another order:

Row | IC50 ([2]; Homo sapiens, A549, 72 h) [mM] | IC50 [3] [mM] | IC50 [4] [mM] | IC50 [5] [mM] | IC50 [2] [mM] | SMILES | IC50 [1] [mM]
5 | > 1 | > 1 | > 1 | > 1 |  | Cc1cc(=O)oc2cc(S[C@@H]3O[C@H](C(=O)O)[C@@H](O)[C@H](O)[C@H]3O)ccc12 [Compound S-1, 4-Methylumbellifer-7-yl 1-thio-β-D-glucopyranosiduronic acid] | > 1
6 | 0.074 | 0.128 | 0.275 | 0.228 | 0.0748 | Cc1cc(=O)oc2cc(S[C@@H]3OC[C@@H](O)[C@H](O)[C@H]3O)ccc12 [Compound S-2, 4-Methylumbellifer-7-yl 1-thio-β-D-xylopyranoside] | 0.162
7 | > 1 | > 1 | > 1 | > 1 |  | Cc1cc(=O)oc2cc(S[C@H]3O[C@H](CO)[C@H](O)[C@H](O)[C@H]3O)ccc12 [Compound S-6, 4-Methylumbellifer-7-yl 1-thio-α-D-galactopyranoside] | > 1
